# In patent US6150414A, “Compositions and methods for treating viral infections” (priority 1992, dated 2000):
# Read-outs that look alike come from different tables or passages of the source.
# How the values were obtained:
# retroviruses (virions) = assay: Direct inactivation of retroviruses (virions) in vitro (Example 10); type: biochemical, Radiation Leukemia Virus; details: Table IX
# Description: Supernatants (10 ml/tube) from B10.T(6R) cells (Meruelo et al. J. Exp. Med. 147: 470-487, 1978) chronically infected with Radiation Leukemia Virus (RadLV) were obtained by centrifugation of cells in culture at 4° C., 3500 rpm for 15 minutes. The top 2/3 of the supernatant were removed and aliquots were incubated for 30 minutes on ice with the indicated amounts of hypericin or protohypericin. […] Thereafter, supernatants were centrifuged at 100,000×g using a TI70 rotor (Beckman Instruments) for 1 hour at 4° C. The pellet was […] and analyzed for reverse transcriptase activity as follows.
# The reverse transcriptase assay was performed in a volume of 100 microliters containing the following components:
# (1) Direct inactivation of retroviruses in vitro, performed as in Example 3 above;
# (§1) The results presented above in Table IX are presented as EC50 concentrations. These are the effective concentrations which inhibit 50% of the viruses in micromolar concentrations.
# Friend Leukemia Virus [1] = assay: Inhibition of Friend Leukemia Virus-induced splenomegaly in mice, compounds intraperitoneally 24 hours after virus (Example 1(a)); type: in vivo, BALB/c mice; set-up: Actual Spleen Weight / Average Spleen Weight: unit not given here; details: Table III; for inhibition in vivo at 0.1 mg / inhibition in vivo at 0.05 mg / inhibition in vivo at 0.2 mg: Mus musculus, ip, read-out: Average Perdosage % Inhibition; for Pooled Average % Inhibition: pooled over 50, 100, 200, 2 × 100 micrograms
# Source text: The effects of compositions according to the present invention on infection of mammals with Friend Leukemia Virus (FV) were examined.
# Friend Leukemia Virus is an aggressive retrovirus which induces an acute erythroleukemia in sensitive strains of mice such as BALB/c and NIH swiss mice as described in Friend, C. J., Exp. Med. 105: 307-324, 1957; Friend, C. et al. Proc. Natl. Acad. Sci. USA 68: 378-383, 1971; Friend, C. et al. Natl. Cancer Inst. Mongr. 22: 508-552, 1966. The malignant transformation is the result of the combined activities of the Spleen Focus Forming Virus (SFFV) and the ecotropic Murine Friend Leukemia Helper Virus (F-MuLV). The acute erythroleukemia is characterized by hepatosplenomegaly (a marked increase in the size of the spleen and liver) and a severe anemia.
# Friend Leukemia Virus was prepared by homogenizing the enlarged spleen of a mouse previously infected with FV, 10 days after intravenous virus injection. The spleen was homogenized in phosphate buffered saline in a volume equal to ten times the weight of the isolated spleen.
# The effects of compositions according to the present invention on the increase in spleen size (splenomegaly) of BALB/c mice (Jackson Labs, Bar Harbor, ME) was examined. In these experiments, the virus (10^6 focus forming units--FFU) was inoculated intravenously and 100 micrograms of the compounds indicated in Table II were administered to the mice intraperitoneally 24 hours later. Each compound was administered once to two mice. The animals were sacrificed ten days later and their spleens weighed.
# The present assay has been developed from similar assays using hypericin or pseudohypericin and employing higher numbers of experimental animals per group (e.g. 4 animals). It was discovered however that the specificity and sensitivity of this assay are such that an experimental group of two animals is of more than adequate predictive value.
# As used in Table II (and subsequent Tables of this Example l(a) and (b), "average percent inhibition" is calculated as follows: [formula] wherein "ASWNC" designates "average spleen weight of negative control"; "ASWE" designates "average spleen weight of experimental (treated) subject"; and "ASWPC" designates "average spleen weight of positive control". Average spleen weight is the numerical average of spleen weights of each experimental group (in Table II each such group includes two members).
# In these experiments, the virus (10^6 focus forming units--FFU) was inoculated intravenously, and the indicated doses of the antiviral compounds of this invention were administered to the BALB/c mice intraperitoneally 24 hours later. The animals were then sacrificed ten days later and their spleens weighed.
# Pseudohypericin was diluted in phosphate buffered saline with 1% ethanol.
# An expanded series of experiments was next performed in which various concentrations (i.e. 50, 100, 200 and 2×100, i.e., 100 micrograms administered twice) of a different set of PAC compounds (numbers 16-29 and 30-36 in Table III below) were administered intraperitoneally each according to the same protocol described above. Compounds 16-29 all had 3-5 fused, aromatic rings and no side groups except for oxygen or hydroxyl groups, whereas compounds 30-36 all had 3 fused aromatic rings and side chains selected from the group of oxygen, hydroxyl and methyl.
# When 2 doses of the compounds were given, the second dose was administered 24-48 hours after the first injection. The animals were infected and splenomegaly determined as above for the compounds in Table II. In Table III, "pooled average percent inhibition" is calculated by adding the average percent inhibition for each experiment with the same compound and dividing the sum by the number of experiments (i.e. the number 4). […]
# Friend Leukemia Virus [2] = assay: In vivo inhibition of Friend Leukemia Virus splenomegaly, intravenous 1-2 hours post infection (Example 10); set-up: species or system mice; details: Mus musculus, i.v. 1-2 hours post infection, Table IX, read-out: EC50 for FV-induced splenomegaly
# Description: (3) In vivo inhibition of Friend Leukemia Virus Splenomegaly performed as described in Example 1 above except that the compounds were administered intravenously 1-2 hours post infection.
# as §1
Compound,EC50 (retroviruses (virions)),inhibition in vivo at 0.1 mg (Friend Leukemia Virus [1]; dose 2 × 100 (micrograms) i.p.),inhibition in vivo at 0.05 mg (Friend Leukemia Virus [1]; dose 50 (micrograms) i.p.),inhibition in vivo at 0.1 mg (Friend Leukemia Virus [1]; dose 100 (micrograms) i.p.),inhibition in vivo at 0.2 mg (Friend Leukemia Virus [1]; dose 200 (micrograms) i.p.),Average Spleen Weight (Friend Leukemia Virus [1]; dose 2 × 100 (micrograms) i.p.),Average Spleen Weight (Friend Leukemia Virus [1]; dose 50 (micrograms) i.p.),Average Spleen Weight (Friend Leukemia Virus [1]; dose 100 (micrograms) i.p.),Average Spleen Weight (Friend Leukemia Virus [1]; dose 200 (micrograms) i.p.),Pooled Average % Inhibition (Friend Leukemia Virus [1]),EC50 (Friend Leukemia Virus [2])
"O=C1c2ccccc2Cc2ccccc21 [Compound 30, Anthrone]",> 51 µM,57%,31%,63%,62%,0.9878,1.4953,0.8790,0.9092,53%,267 µM
"Cc1cc(O)c2c(c1)C(=O)c1cc(O)cc(O)c1C2=O [Compound 34, Emodin]",> 37 µM,42%,41%,50%,20%,1.2834,1.2914,1.1333,1.6902,38%,
